# From patent US10071951B2, “Liquid cation exchanger” (Evonik Degussa GmbH, priority 2011, dated 2018)
# Columns and labels:
# E. coli BL21(DE3) = assay: Toxicity of liquid cation exchangers, CFU determination (Example 2)
# Excerpt: 50% DEHPA and lauric acid (15%), each dissolved in LSME and laden equimolar or 25 mol % with ALSME, were contacted as liquid cation exchanger with a E. coli BL21 (DE3) strain, and the influence of these two compounds on the ability of the strain to form colonies, expressed in CFUs, was investigated.
# E. coli W3110 [1] = conditions: culture covered with identical volume of solvent, oleic acid volume adapted with LSME
# Method: Firstly, a preculture comprising 20 ml LB medium was inoculated in a 100 ml baffled flask with a cryoculture of the corresponding strain. The culture was cultured overnight at 37° C. and with shaking at 200 rpm used on the next day in order to inoculate an identical main culture to an OD of 0.2. The main cultures (each 30 mL of LB medium) were then further incubated under identical conditions. At an OD of 0.4 to 0.5, the main culture was covered with in each case identical volumes (30 ml) of solvent and then further incubated.
# To determine the number of CFU (colony-forming units) 0.1 ml samples were taken in the following experiments and diluted in sterile 0.9% NaCl solution. Suitable dilution stages were plated out on LB agar plates. After incubation at 34° C. overnight, the colonies formed were counted and the CFUs determined.
# For this, two different concentrations of oleic acid were used and the volume was adapted by adding the corresponding amount of LSME (methyl laurate).
# On account of the lower solubility of the unsaturated fatty acid lauric acid, this was used in a smaller amount. The volumes of the different cation exchangers were made the same with the LSME. The number of CFUs was determined at the start, after 4.5 h and after 24 h.
# E. coli W3110 [2] = assay: Reduction in the toxicity of ALSME by contacting with a liquid cation exchanger, CFU determination (Example 4); conditions: ALSME 0.2% (w/v) dissolved in aqueous systems, no organic phase
# Method: Before the determination of the CFU was able to be carried out, a plate LB (10 g/L peptone from casein, 5 g/L yeast extract, 10 g/L NaCl) was streaked with E. coli BW3110 and incubated for 24 h. On the evening of the following day, a preculture was inoculated from this previously streaked plate. […] After the incubation of the main culture, the cells were harvested, centrifuged at 5258 g and 4° C. for 10 min and resuspended with an OD600 of 30 in 10 mL 50 mM Kp, buffer at pH 7.4 (or 25 mM HEPES buffer pH 7.4 if CFU determinations were carried out with ALSME). Both buffer solutions used contained 5% glucose (w/v). The bacteria suspension was then transferred to the shake flasks and treated with the respective substance solutions. After thorough mixing has taken place by swirling the flask, 100 μL of the suspension was pipetted out and placed into 900 μL, of previously charged sterile saline. This corresponded to sampling at time point t0. Then followed incubation of the preparations at 250 rpm and 30° C. The CFUs were determined over a period of 22 h. The samples were taken firstly at time points t0, t3, t6 and t22. For some preparations, a further sampling time point t15 was added and, in addition to this, a further additional dilution series was plated out in order to minimize deviations.
# The bacteria were firstly resuspended in 5 mL (corresponds to half of the buffer volume). […]
# [3] = Removal (reactive extraction) of DAI and DAS from an aqueous phase into a hydrophobic organic phase (Example 3); type: physicochemical
# Excerpt: The organic solvents used here are kerosene (K), benzyl benzoate (B), methyl laurate (ML), cis-9-ocitadecen-1-ol (OD). As liquid cation exchangers, oleic acid and D2EHPA were compared in terms of their effect with the respective pure solvent.
# The experimental procedure proceeded identically in all cases: the aqueous phase comprised 2% by weight of diamine and the organic phase consisted of the corresponding solvent and 20% by weight of the respective liquid cation exchanger. The volume ratio of the two phases was 1:1 (in each case 4.5 ml). At a constant temperature of T=30° C., the samples were shaken for 2 hours in a water bath. Then, after centrifugation and phase separation, the phases were analyzed. The pH was adjusted in all cases with aqueous ammonia or sulphuric acid.
# [4] = test system: E. coli strain BL21 (DE3) Tlr pBT10 pACYC:Duet[TAcv]; assay: Toxicity of liquid cation exchangers in fermentation, oxygen transfer rate (OTR) (Example 5); type: cell-based; conditions: ion exchanger 10% w/w in methyl laurate; for toxic effect on cells judged from the OTR curve: 150 mL added to fermentation broth, 22 h
# Method: The biotransformation of methyl laurate to methyl aminolaurate was tested in an 8-fold parallel fermentation system from DasGip with different ion exchangers.
# 1 L reactors were used for the fermentation. The pH probes were calibrated using a two-point calibration with measurement solutions of pH 4.0 and pH 7.0. The reactors were filled with 300 mL of water and autoclaved for 20 min at 121° C. in order to ensure sterility. The pO2 probes were then polarized overnight (at least 6 h). On the next morning, the water was removed under the clean bench and replaced by high cell density medium with 50 mg/L kanamycin and 34 mg/L chloramphenicol. Subsequently, the pO2 probes were calibrated with a one-point calibration (stirrer: 600 rpm/gassing: 10 sL/h air) and the feed, correctant and induction means stretches were cleaned by means of clean-in-place. For this, the tubes were flushed with 70% ethanol, then with 1 M NaOH, then with sterile demineralised water, and finally filled with the respective media.
# The ALS and ALSME producing E. coli strain BL21 (DE3) Tlr pBT10 pACYC:Duet[TAcv] was firstly grown from cryoculture in LB medium (25 mL in a 100 mL baffled flask) with 50 mg/L kanamycin and 34 mg/L chloramphenicol overnight at 37° C. and 200 rpm for ca. 18 h.
# The 3 cultures were combined in a shake flask and the optical density was determined at 7.2. In order to inoculate the reactors with an optical density of 0.1, in each case 4.2 mL were drawn up in a 5 mL syringe and the reactors were inoculated by means of canulae via a septum.
# The experiment carried out can be divided into two phases, the cultivation during which the cells should reach a certain optical density, and the subsequent biotransformation during which the expression of the genes required for the biotechnological process for producing ALSME was induced. The pH values were regulated to pH 6.8 on the one hand with ammonia (12.5%). During cultivation and biotransformation, the dissolved oxygen (DO) in the culture was regulated at 30% via stirrer speed and gassing rate. The fermentation was carried out as a feed batch, where the feed start, 5 g/Lh glucose feed (500 g/L glucose with 1% MgSO4*7H2O and 2.2% NH4Cl), was triggered via a DO peak. […] The expression of the transaminase was induced 2 h after feed start via the automatic addition of IPTG (1 mM). The induction of the alk-genes was carried out by the manual addition of DCPK (0.025% v/v) 10 h after feed start. Before the start of the biotransformation, the optical density of the culture broths was determined.
# The start of the biotransformation phase was carried out 14 h after feed start. For this, 150 mL of a mixture of methyl laurate and the respective ion exchanger (10% w/w) were added as a batch to the fermentation broth. The ion exchangers used were di(2-ethylhexyl)phosphoric acid (DEHPA), lauric acid, oleic acid, palmitic acid, palmitoleic acid, stearic acid and a mixture of free fatty acids from the saponification of globe thistle oil. In order to provide an amino group donor for the transaminase, at the same time as the addition of the organic phase, 10.7 mL of an alanine solution (125 g/L) were added to the fermentation broth. For the sampling, 2 mL of fermentation broth were removed from the reactor and part of it was diluted 1/20 in an acetone/HCl mixture (c(HCl)=0.1 mol/L) and extracted. Samples were taken from all 8 reactors at 1.25 h, 3 h, 5 h, 20 h, 22 h […] after the start of the biotransformation. The transfer rates for oxygen (OTR=oxygen transfer rate) and carbon (CTR=carbon transfer rate) were determined during the fermentation via offgas analysis on the DasGip systems. The fermentation was ended 22 h after the start of the biotransformation.
# E. coli BW3110 = assay: Toxicity of the solvent LSME, CFU determination (Example 1); type: cell-based; conditions: cells OD600 60 in 10 mL Kp buffer mixed with 5 mL LSME 98% (w/w), 30° C.
# Method: The OD600 was 60. […] One dilution stage per preparation was plated out.
# [5] = E. coli BL21(DE3), culture covered with identical volume of solvent, oleic acid volume adapted with LSME
# [6] = oleic acid 20% by weight, solvent methyl laurate, pH lowered with sulphuric acid
smiles,measurement,setting,value
CCCCC(CC)C(=O)O (centres unmarked) [2-Ethylhexanoic acid],Number of CFUs after 22 or 24 h relative to t = 0 h,E. coli BL21(DE3); [5],0%
same,Number of CFUs after 22 or 24 h relative to t = 0 h,E. coli W3110 [1],0%
"COC(=O)CCCCCCCCCCCN [ALSME, methyl 12-aminolaurate]",effect on the bacteria,E. coli W3110 [2],bactericidal effect
"NC1COC2C(N)COC12 (centres unmarked) [DAI, diaminoisoiditol]",degree of extraction,"[3]; D2EHPA 20% by weight as liquid cation exchanger, without addition of acid or alkali, pH range 5.4 to 6.2, 30° C., 2 h, phases 1:1",ca. 100%
same,maximum degree of extraction,[3]; [6],48%
same,maximum degree of extraction,"[3]; oleic acid, solvent benzyl benzoate, pH 1.1",15.3
same,maximum degree of extraction,"[3]; oleic acid, solvent cis-9-octadecen-1-ol, pH 7.9, neither alkali nor acid added",85%
same,maximum degree of extraction,"[3]; oleic acid, solvent kerosene, pH 8.4",77.5%
"NC1COC2C(N)COC12 (centres unmarked) [DAS, diaminoisosorbitol]",maximum degree of extraction,[3]; [6],4%
same,maximum degree of extraction,"[3]; oleic acid, solvent benzyl benzoate, pH 7.3",61.5%
same,maximum degree of extraction,"[3]; oleic acid, solvent cis-9-octadecen-1-ol, pH 6 (starting pH reduced with H2SO4)",5.5%
same,maximum degree of extraction,"[3]; oleic acid, solvent kerosene, pH 8.5",85%
"CCCCC(CC)COP(=O)(O)OCC(CC)CCCC (centres unmarked) [DEHPA, di(2-ethylhexyl)phosphoric acid, reference compound]",toxic effect on cells judged from the OTR curve,[4],high grade toxic effect
same,OTR after adding the compound to the culture,"[4]; 150 mL, within a short time",0
same,Number of CFUs after 22 or 24 h relative to t = 0 h,E. coli BL21(DE3); E. coli,0%
CC(C)CCCCCC(=O)O [Isononanoic acid],Number of CFUs after 22 or 24 h relative to t = 0 h,E. coli BL21(DE3); [5],0%
same,Number of CFUs after 22 or 24 h relative to t = 0 h,E. coli W3110 [1],0%
"CCCCCCCCCCCC(=O)OC [LSME, methyl laurate]",tolerance by the strains used,E. coli BL21(DE3); preliminary experiments,well tolerated
same,percentage decrease in living cell count,E. coli BW3110; after 22 h,30.3%
same,number of CFU/mL,E. coli BW3110; over a period of 6 h,remained constant
CCCCCCCCCCCC(=O)O [Lauric acid],toxic effect on cells judged from the OTR curve,[4],notably less toxic than DEHPA
same,Number of CFUs after 22 or 24 h relative to t = 0 h,E. coli BL21(DE3); E. coli,1.2%
CCCCCCCC/C=C\CCCCCCCC(=O)O [oleic acid],toxic effect on cells judged from the OTR curve,[4],even lower toxicity than the saturated fatty acids
CCCCCCCCCCCCCCCC(=O)O [palmitic acid],toxic effect on cells judged from the OTR curve,[4],considerably lower toxic effect
CCCCCC/C=C\CCCCCCCC(=O)O [palmitoleic acid],toxic effect on cells judged from the OTR curve,[4],even lower toxicity than the saturated fatty acids
CCCCCCCCCCCCCCCCCC(=O)O [stearic acid],toxic effect on cells judged from the OTR curve,[4],considerably lower toxic effect
